Source: US9670227B2, “Thienopyrimidine derivatives, a process for their preparation and pharmaceutical compositions containing them” (LES LABORATOIRES SERVIER, priority 2013, dated 2017)

Columns and labels:
Mcl-1 protein = Mcl-1 protein (UniProtKB primary accession number: Q07820) (Homo sapiens, UniProt Q07820); assay: Inhibition of Mcl-1 by fluorescence polarisation, Method 1; type: binding; details: fluorescence polarisation test; Method 1, or Method 2 where the value is underlined (underlining not visible); read-out: IC50 (M) Mcl-1 FP
Outline: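 Compounds were tested as 11-point serial dilutions at 5% final DMSO against 5 nM Mcl-1 with 1 nM fluorescein-labelled ligand in 10 mM HEPES, 150 mM NaCl, 0.05% Tween 20, pH 7.4. Relative binding potency was read by fluorescence polarisation.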

[1] = test system: H929 multiple myeloma tumour line; assay: In vitro cytotoxicity, Microculture Tetrazolium Assay; type: cell-based; details: Homo sapiens, NCI-H929, 48 h, H929 cells, 48 hours exposure, cell viability; read-out: IC50 (μM) MTT H929
Experimental: The cytotoxicity studies were carried out on the H929 multiple myeloma tumour line.
The cells are distributed onto microplates and exposed to the test compounds for 48 hours.

[2] = test system: AMO-1 multiple myeloma cells; assay: Quantification of the cleaved form of PARP in vivo (MSD ELISA, tumour lysates); design: species or system mice (SCID strain); details: activation factor: cleaved PARP in treated mice / control mice, AMO-1 xenograft in SCID mice, intraveinous or oral routes
Outline: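 SCID mice bearing subcutaneous AMO-1 xenografts (1.10^7 cells) dosed intravenously or orally 12 to 14 days after grafting. Cleaved PARP in tumour lysates measured by MSD ELISA. Reported as activation factor, the ratio of treated to control cleaved PARP.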

Chain of Mcl-1 protein (Q07820 whole entry): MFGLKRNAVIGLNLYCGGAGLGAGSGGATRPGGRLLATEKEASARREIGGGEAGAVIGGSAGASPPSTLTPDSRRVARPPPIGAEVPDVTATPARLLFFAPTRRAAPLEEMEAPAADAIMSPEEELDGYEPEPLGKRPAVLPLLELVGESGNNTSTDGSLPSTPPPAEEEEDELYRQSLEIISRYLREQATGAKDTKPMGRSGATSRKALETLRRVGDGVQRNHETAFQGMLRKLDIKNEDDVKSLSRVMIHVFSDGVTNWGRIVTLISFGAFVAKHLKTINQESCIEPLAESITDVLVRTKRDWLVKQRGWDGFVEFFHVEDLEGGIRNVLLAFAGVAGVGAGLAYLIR

IC50 (Mcl-1 protein)	Structure (SMILES)	IC50 [1]	PARP fold [2]
8.55e-09 M	COc1ccccc1-c1nccc(COc2ccccc2CC(Oc2ncnc3sc(-c4ccc(F)cc4)c(-c4ccc(OCCN5CCN(C)CC5)c(Cl)c4C)c23)C(=O)OCc2oc(=O)oc2C)n1 [Example 811, (5-methyl-2-oxo-1,3-dioxol-4-yl)methyl (2R)-2-{[(5Sa)-5-{3-chloro-2-methyl-4-[2-(4-methylpiperazin-1-yl)ethoxy]phenyl}-6-(4-fluorophenyl)thieno[2,3-d]pyrimidin-4-yl]oxy}-3-(2-{[2-(2-methoxyphenyl)pyrimidin-4-yl]methoxy}phenyl)propanoate]	0.002 µM	117.6 fold
6.51e-07 M	COc1ccccc1-c1nccc(COc2ccccc2CC(Oc2ncnc3sc(-c4ccc(F)cc4)c(-c4ccc(OCCN5CCN(C)CC5)c(Cl)c4C)c23)C(=O)OCC(=O)N(C)C)n1 [Example 812, 2-(dimethylamino)-2-oxoethyl (2R)-2-{[(5Sa)-5-{3-chloro-2-methyl-4-[2-(4-methylpiperazin-1-yl)ethoxy]phenyl}-6-(4-fluorophenyl)thieno[2,3-d]pyrimidin-4-yl]oxy}-3-(2-{[2-(2-methoxyphenyl)pyrimidin-4-yl]methoxy}phenyl)propanoate]	0.103 µM	136 fold
6.39e-07 M	COCCOCCOC(=O)C(Cc1ccccc1OCc1ccnc(-c2ccccc2OC)n1)Oc1ncnc2sc(-c3ccc(F)cc3)c(-c3ccc(OCCN4CCN(C)CC4)c(Cl)c3C)c12 [Example 814, 2-(2-methoxyethoxy)ethyl (2R)-2-{[(5Sa)-5-{3-chloro-2-methyl-4-[2-(4-methylpiperazin-1-yl)ethoxy]phenyl}-6-(4-fluorophenyl)thieno[2,3-d]pyrimidin-4-yl]oxy}-3-(2-{[2-(2-methoxyphenyl)pyrimidin-4-yl]methoxy}phenyl)propanoate]	0.314 µM	118.5 fold
